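Test compounds were applied to cells in 96-well plates for 48 hours at 5 doses. GI50 marks 50% less growth.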 Active and inactive are the calls of the source. No stated cut-off is given here; in the data, active = GI50 up to about 1.1 µM and inactive = higher.
Tests used:
Test in all cases: NCI-60 cell line screen, 48 h
MOLT-4 = test system: MOLT-4
NCI-H460 = test system: NCI-H460
M14 = test system: M14
ACHN = test system: ACHN
OVCAR-5 = test system: OVCAR-5
MDA-N = test system: MDA-N
SNB-19 = test system: SNB-19
NCI-H522 = test system: NCI-H522
HL-60 = test system: HL-60
IGROV-1 = test system: IGROV-1
OVCAR-3 = test system: OVCAR-3
COLO 205 = test system: COLO 205
SK-MEL-2 = test system: SK-MEL-2
MDA-MB-231 = test system: MDA-MB-231
SW-620 = test system: SW-620
HCT-15 = test system: HCT-15
SK-OV-3 = test system: SK-OV-3
MCF7 = test system: MCF7
RXF 393 = test system: RXF 393
SR = test system: SR

SMILES | GI50 (MOLT-4) | GI50 (NCI-H460) | GI50 (M14) | GI50 (ACHN) | GI50 (OVCAR-5) | GI50 (MDA-N) | GI50 (SNB-19) | GI50 (NCI-H522) | GI50 (HL-60) | GI50 (IGROV-1) | GI50 (OVCAR-3) | GI50 (COLO 205) | GI50 (SK-MEL-2) | GI50 (MDA-MB-231) | GI50 (SW-620) | GI50 (HCT-15) [µM] | GI50 (SK-OV-3) | GI50 (MCF7) | GI50 (RXF 393) | GI50 (SR)
Cc1ccc2ccccc2c1CSc1nc(N)nc2c1ncn2CC(C)C | 4.73 µM (inactive) | 14.2 µM (inactive) | 17.3 µM (inactive) | 16.4 µM (inactive) | 96.2 µM (inactive) | 15.7 µM (inactive) | 48.3 µM (inactive) | 8.71 µM (inactive) | 16.2 µM (inactive) | 51.2 µM (inactive) | 14.4 µM (inactive) | 6.4 µM (inactive) | 17 µM (inactive) | > 30.9 µM (inactive) | 24.7 µM (inactive) | 10.9 | 30.5 µM (inactive) | 12.9 µM (inactive) | 10.7 µM (inactive) | 4.79 µM (inactive)
CC(C)c1ccccc1[S+]([O-])c1ccccc1C(C)(C)O (stereo not given) | > 100 µM (inactive) | 30.8 µM (inactive) | > 100 µM (inactive) | > 100 µM (inactive) | 56.2 µM (inactive) | 57.8 µM (inactive) | 37.3 µM (inactive) | 96.8 µM (inactive) | 82.6 µM (inactive) | > 100 µM (inactive) | > 100 µM (inactive) | > 100 µM (inactive) | 67.6 µM (inactive) | 88.9 µM (inactive) | > 100 µM (inactive) | 82 | 30.9 µM (inactive) | > 100 µM (inactive) | > 100 µM (inactive) | > 100 µM (inactive)
CC[C@@]1(O)C(=O)OCc2c1cc1n(c2=O)Cc2cc3c(NC(=O)CN)cccc3nc2-1 | < 0.0199 µM (active) | < 0.0318 µM (active) | 0.098 µM (active) | 0.0521 µM (active) | 7.8 µM (inactive) | 2.1 µM (inactive) | 0.154 µM (active) | 0.277 µM (active) | < 0.0362 µM (active) | 3.42 µM (inactive) | 2.17 µM (inactive) | 6.1 µM (inactive) | 3.7 µM (inactive) | 14.5 µM (inactive) | 2.07 µM (inactive) | 8.13 | 0.13 µM (active) | 0.0466 µM (active) | < 0.0463 µM (active) | < 0.01 µM (active)
CN(C)c1ccc(/C=C/c2cc[n+](C)c3ccccc23)cc1 | 3.4 µM (inactive) | 2.9 µM (inactive) | 3.44 µM (inactive) | 6.43 µM (inactive) | 6.43 µM (inactive) | 2.27 µM (inactive) | 2.34 µM (inactive) | 1.98 µM (inactive) | 0.748 µM (active) | 5.16 µM (inactive) | 1.77 µM (inactive) | 1.36 µM (inactive) | 2.27 µM (inactive) | 5.94 µM (inactive) | 2.44 µM (inactive) | 29.9 | 5.81 µM (inactive) | 2.29 µM (inactive) | 7.1 µM (inactive) | 0.698 µM (active)
Cc1cc(-c2nc3ccc(F)cc3s2)ccc1NC(=O)C(N)CCCCN (stereo not given) | 2.34 µM (inactive) | 1.82 µM (inactive) | 3.29 µM (inactive) | 12.7 µM (inactive) | 7.64 µM (inactive) | 2.52 µM (inactive) | 10.2 µM (inactive) | 5.9 µM (inactive) | 2.9 µM (inactive) | 0.617 µM (active) | 7.83 µM (inactive) | 4.51 µM (inactive) | 10.1 µM (inactive) | 9.38 µM (inactive) | 2.9 µM (inactive) | 9.08 | 13.3 µM (inactive) | 0.0184 µM (active) | 10.4 µM (inactive) | 1.96 µM (inactive)
CC(C)(CCCCC(C)(C)NCC1COc2ccccc2O1)NCC1COc2ccccc2O1 (stereo not given) | > 10 µM (inactive) | > 10 µM (inactive) | 1.76 µM (inactive) | > 10 µM (inactive) | > 10 µM (inactive) | 2.81 µM (inactive) | > 10 µM (inactive) | 5.51 µM (inactive) | > 10 µM (inactive) | > 10 µM (inactive) | > 10 µM (inactive) | 2.12 µM (inactive) | 3.29 µM (inactive) | 3.54 µM (inactive) | 9.75 µM (inactive) | 7.98 | > 10 µM (inactive) | 5.98 µM (inactive) | 3.18 µM (inactive) | > 10 µM (inactive)
COc1ccc(/C=C(\C(=C/c2ccc(OC)cc2)[N+](=O)[O-])[N+](=O)[O-])cc1 | 2.96 µM (inactive) | 5.64 µM (inactive) | 4.11 µM (inactive) | 5.96 µM (inactive) | 10.3 µM (inactive) | 3.14 µM (inactive) | 10.1 µM (inactive) | 2.58 µM (inactive) | 0.261 µM (active) | 4.55 µM (inactive) | 12.8 µM (inactive) | 3.68 µM (inactive) | 11.6 µM (inactive) | 2.07 µM (inactive) | 2.52 µM (inactive) | 2.55 | 16.6 µM (inactive) | 6.31 µM (inactive) | 1.54 µM (inactive) | 2.03 µM (inactive)
CC1(C#N)CC(C)(C)C(/C=C2/CC(C)(C)C(/C=C3/OC(=N)CC3(C)C)=N2)=N1 (stereo not given) | 28.7 µM (inactive) | 15.8 µM (inactive) | 28.9 µM (inactive) | 21.3 µM (inactive) | 80.4 µM (inactive) | 31.4 µM (inactive) | 32.7 µM (inactive) | 14.2 µM (inactive) | 21.9 µM (inactive) | 17.6 µM (inactive) | 20 µM (inactive) | 16.9 µM (inactive) | 38.7 µM (inactive) | 33.6 µM (inactive) | 34.4 µM (inactive) | 17.9 | 20.4 µM (inactive) | 12.3 µM (inactive) | 15.2 µM (inactive) | 28.5 µM (inactive)
CCN1CN(c2ccccc2)C2(CCN(CC(CC3OCCO3)c3ccc(F)cc3)CC2)C1=O (stereo not given) | 4.99 µM (inactive) | 14.7 µM (inactive) | 5.24 µM (inactive) | 3.73 µM (inactive) | 6.5 µM (inactive) | 8.49 µM (inactive) | 20.6 µM (inactive) | 12.6 µM (inactive) | 17.7 µM (inactive) | 6.75 µM (inactive) | 18.8 µM (inactive) | 0.703 µM (active) | 20.1 µM (inactive) | 16.1 µM (inactive) | 6.35 µM (inactive) | 16.3 | 39.8 µM (inactive) | 2.26 µM (inactive) | 16.2 µM (inactive) | 33 µM (inactive)
COc1ccccc1-c1cc(=O)c2ccc(OC)c(OC)c2o1 | 60.4 µM (inactive) | 49.5 µM (inactive) | 64.3 µM (inactive) | 39.4 µM (inactive) | > 100 µM (inactive) | 48.2 µM (inactive) | 82.2 µM (inactive) | 32.8 µM (inactive) | 27.5 µM (inactive) | 97.1 µM (inactive) | 31.6 µM (inactive) | 49.3 µM (inactive) | 70.6 µM (inactive) | > 100 µM (inactive) | 96.2 µM (inactive) | 41.4 | 66.7 µM (inactive) | 45.9 µM (inactive) | 27.1 µM (inactive) | > 100 µM (inactive)
COC1=CC(=O)c2c(O)c3c(c(O)c2C1=O)CC(C)(O)OC3 (stereo not given) [FUSARUBIN] | 2.64 µM (inactive) | 1.18 µM (inactive) | 1.87 µM (inactive) | 2.95 µM (inactive) | 4.46 µM (inactive) | 1.89 µM (inactive) | 3.27 µM (inactive) | 2.25 µM (inactive) | 2.42 µM (inactive) | 1.99 µM (inactive) | 0.906 µM (active) | 0.897 µM (active) | 1.95 µM (inactive) | 2.84 µM (inactive) | 3.75 µM (inactive) | 1.58 | 18.2 µM (inactive) | 1.34 µM (inactive) | 4.17 µM (inactive) | 5.36 µM (inactive)
